Test results published in ChEMBL document CHEMBL1131984, “Synthesis and antitumour activity of novel diterpenequinone salvicine and the analogs” (Bioorg Med Chem Lett, 1999).
pIC50: −log10 of the molar value. Where “and” joins values, the source holds several entries; their conditions need not be identical. Equal values may be shown once.

Columns and labels:
SGC-7901 = assay: In vitro cytotoxic activity against SGC-7901 stomach cancer solid tumor cell line by MTT assay (microculture terazolium colorimetric); format: functional, cell-based; settings: Homo sapiens
P388 = assay: In vitro cytotoxic activity against P388 mouse leukemia cell line by MTT assay (microculture terazolium colorimetric); format: functional, cell-based
HL-60 = assay: In vitro cytotoxic activity against HL-60 human leukemia cell line by MTT assay (microculture terazolium colorimetric); format: functional, cell-based
SPC-A4 = assay: In vitro cytotoxic activity against SPC-A4 lung cancer solid tumor cell line by MTT assay (microculture terazolium colorimetric); format: functional, cell-based; settings: Homo sapiens
Mus musculus [1] = assay: In vivo inhibitory activity against murine S-180 sarcoma at a dose of 3.0 mg/kg (day 7); format: functional
Mus musculus [2] = assay: Ratio of the tumor weight of mice at the initial stage and the final stage of the experiment was reported at a dose of 5.0 mg/kg i.p. (day10); format: functional; settings: route intraperitoneal
Mus musculus [3] = assay: In vivo inhibitory activity against murine lewis lung cancer at a dose of 5.0 mg/kg i.p. (day10); format: functional; settings: route intraperitoneal
Mus musculus [4] = assay: (§1) Ratio of the tumor weight of mice at the initial stage and the final stage of the experiment was reported at a dose of 3.0 mg/kg (day 7); format: functional
Mus musculus [5] = assay: as §1; format: functional; remark: listed apart in the source
Mus musculus [6] = assay: In vivo inhibitory activity against human lung adenocarcinoma xenograft LAX-83 in mice at a dose of 2.0 mg/kg (Q2dx10) administered i.p.; format: functional; settings: route intraperitoneal
Mus musculus [7] = assay: Ratio of the tumor weight of mice at the initial stage and the final stage of the experiment was reported at a dose of 0.2 ml/mouse (Q2dx9) administered i.p.; format: functional
Mus musculus [8] = assay: In vivo inhibitory activity against human lung adenocarcinoma xenograft A-549 in mice at a dose of 2.0 mg/kg (Q2dx9) administered i.p.; format: functional; settings: A549, ip, route intraperitoneal
Mus musculus [9] = assay: In vivo inhibitory activity against human lung adenocarcinoma xenograft A-549 in mice at a dose of 2.0 mg/kg (Q2dx10) administered i.p.; format: functional; settings: route intraperitoneal
Mus musculus [10] = assay: Ratio of the tumor weight of mice at the initial stage and the final stage of the experiment was reported at a dose of 0.2 ml/mouse (Q2dx10) administered i.p.; format: functional
Mus musculus [11] = assay: Ratio of the tumor weight of mice at the initial stage and the final stage of the experiment was reported at a dose of 0.2 ml/mouse (Q2dx10) administered i.p.; 10/10; format: functional

For `C=C(C)[C@H](CCc1c(C)ccc2c1C(=O)C(=O)C(C(C)C)=C2)OO`, the pIC50 (SGC-7901) was 5.65, the pIC50 (P388) was 5.43 and the pIC50 (HL-60) was 5.43. For the same compound, the pIC50 (SPC-A4) was 5.54.
With `Cc1ccc2cc(C(C)C)c(=O)oc(=O)c2c1CCC(=O)C(C)C` the pIC50 (SGC-7901) was 4.05, the pIC50 (P388) was 5.83 and the pIC50 (HL-60) was 5.84. For the same compound, the pIC50 (SPC-A4) was 5.56.
In the case of `Cc1ccc2c(c1CCC=O)C(=O)C(=O)C(C(C)C)=C2`, the pIC50 (SGC-7901) was 4.28, the pIC50 (P388) was 5.75 and the pIC50 (HL-60) was 5.62. The pIC50 (SPC-A4) was 5.57.
Compound `CC(=O)OC(CCc1c(C)ccc2c1C(=O)C(=O)C(C(C)C)=C2)C(C)(C)O` (stereo not drawn) has a pIC50 (P388) of 5.47, a pIC50 (HL-60) of 5.30 and a pIC50 (SPC-A4) of 5.58.
With `COc1cc([C@@H]2c3cc4c(cc3[C@@H](O[C@@H]3O[C@@H]5CO[C@@H](C)O[C@H]5[C@H](O)[C@H]3O)[C@H]3COC(=O)[C@H]23)OCO4)cc(OC)c1O` [ETOPOSIDE] the Inhibition (Mus musculus [1]) was 40% and 39.4% and 61.3%, the Tumor weight (Mus musculus [2]) was 0.73 g and 1.03 g and the inhibition in vivo at 5 mg/kg (Mus musculus [3]; Mus musculus, Lung, ip, 240 h) was 50.3%. For the same compound, the Inhibition (Mus musculus [3]; 5 mg/kg) was 48.5%, the Tumor weight (Mus musculus [4]) was 1.09 g and 1.06 g and the Tumor weight (Mus musculus [5]) was 0.99 g.
With `CO[C@@]12[C@H](COC(N)=O)C3=C(C(=O)C(C)=C(N)C3=O)N1C[C@@H]1N[C@@H]12` [MITOMYCIN] the Inhibition (Mus musculus [6]) was 63.49% and 70.1% and 87.54%, the Tumor weight (Mus musculus [7]) was 3.43 g and the inhibition in vivo at 2 mg/kg (Mus musculus [8]) was 79.2%. For the same compound, the inhibition in vivo at 2 mg/kg (Mus musculus [9]; Mus musculus, A549, ip) was 67.9%, the Inhibition (Mus musculus [9]; 2 mg/kg) was 52.69% and the Tumor weight (Mus musculus [10]) was 1.62 g and 1.71 g and 1.91 g and 1.15 g. It also gave a Tumor weight (Mus musculus [11]) of 2.64 g.
